Measured values taken from patent publication US8546579B2, “Bicycloheteroaryl compounds as P2X7 modulators and uses thereof” (Evotec (US) Inc., priority 2006, dated 2013).

target: T1, P2X7 receptor (Homo sapiens, UniProt Q99572); assay: IL-1β release assay in differentiated THP-1 cells stimulated with BzATP (Example 9); format: cell-based; parameters: inhibition: dose or concentration left out as unconfirmed; conditions: 0.1 μM compound; differentiated THP-1 cells, BzATP 250 uM; '*' class symbols; read-out: IL-1β % Inhib. (asterisk classes, 0.1 μM)
T1 construct: host or cells: THP-1 cells differentiated with LPS and IFN-γ
T1 sequence (Q99572 1-595): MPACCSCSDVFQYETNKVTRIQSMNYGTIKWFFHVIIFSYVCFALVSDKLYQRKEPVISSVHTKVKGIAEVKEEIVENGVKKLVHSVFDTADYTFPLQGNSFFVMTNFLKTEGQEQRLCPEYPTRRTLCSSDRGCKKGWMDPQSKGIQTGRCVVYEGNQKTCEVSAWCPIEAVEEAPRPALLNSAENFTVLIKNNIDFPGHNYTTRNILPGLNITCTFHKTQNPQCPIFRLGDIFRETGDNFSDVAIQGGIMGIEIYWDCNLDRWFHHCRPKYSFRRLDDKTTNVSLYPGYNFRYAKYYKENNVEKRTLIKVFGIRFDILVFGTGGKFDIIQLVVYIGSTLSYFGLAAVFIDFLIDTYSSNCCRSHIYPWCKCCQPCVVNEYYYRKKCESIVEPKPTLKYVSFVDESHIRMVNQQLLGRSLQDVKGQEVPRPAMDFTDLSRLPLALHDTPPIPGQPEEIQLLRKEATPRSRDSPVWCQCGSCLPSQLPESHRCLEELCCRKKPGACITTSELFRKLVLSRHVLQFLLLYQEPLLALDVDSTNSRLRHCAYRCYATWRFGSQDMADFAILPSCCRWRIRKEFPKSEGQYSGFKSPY
Procedure, shortened: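 THP-1 cells differentiated 16 h with LPS and IFN-γ (100 ng/mL each), re-primed 2 h with LPS, then compound-pretreated 30 min before 250 uM BzATP for 45 min. Supernatant IL-1β quantified by ELISA; background-adjusted percent inhibition fitted to four-parameter logistic for IC50.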

Row | inhibition at 0.1 µM | Structure (SMILES)
1 | 0 to 25% | Cc1ccccc1CCC(=O)Nc1cccc2c(=O)n(C)ccc12 [Compound 1057]
2 | 0 to 25% | COCCn1ccc2c(NC(=O)c3ccc(-c4ccccc4)o3)cccc2c1=O [Compound 1063]

same assay, conditions: 0.1 μM compound; differentiated THP-1 cells, BzATP 250 uM; symbols * to ****; read-out: IL-1β % Inhib. (asterisk symbols: at 0.1 μM)

Row | inhibition at 0.1 µM | Structure (SMILES)
3 | 0 to 25% | COc1ccccc1CCC(=O)Nc1cccc2c(=O)n(Cc3cccnc3)ccc12 [Compound 1348]
4 | 0 to 25% | COc1ccc(C(=O)Nc2cccc3c(=O)n(CC4CCOCC4)ccc23)c(C)c1 [Compound 1394]

same assay, conditions: 0.3 μM compound; differentiated THP-1 cells, BzATP 250 uM; "+" class symbols; read-out: IL-1β % Inhib. @ 0.3 μM

Row | inhibition at 0.3 µM | Structure (SMILES)
5 | 0 to 25% | CC(C(=O)Nc1cccc2c(=O)n(CCS(C)(=O)=O)ccc12)c1ccc(Cl)cc1 (stereo not drawn) [Compound 1631]

same assay, conditions: 0.3 μM compound; differentiated THP-1 cells, BzATP 250 uM; '+' class symbols; read-out: IL-1β % Inhib. @ 0.3 μM

Row | inhibition at 0.3 µM | Structure (SMILES)
6 | 0 to 25% | CN(C)CCn1ccc2c(NC(=O)c3cc4cc(Cl)ccc4o3)cccc2c1=O [Compound 1182]
7 | 0 to 25% | Cc1c(Cl)cccc1C(=O)Nc1cccc2c(=O)n(CC3CCOCC3)ccc12 [Compound 1120]
8 | 0 to 25% | CN(C)CCn1ccc2c(NC(=O)c3ccc(Cl)cc3Cl)cccc2c1=O [Compound 1138]
9 | 0 to 25% | CC(C)(C)Cn1ccc2c(NC(=O)CCc3ccccc3Cl)cccc2c1=O [Compound 1054]
10 | 0 to 25% | COc1cc(CC(=O)Nc2cccc3c(=O)n(CC4CCOCC4)ccc23)cc(OC)c1 [Compound 1111]
11 | ≥ 76% | CC(=O)OCCn1ccc2c(NC(=O)Cc3ccc(Cl)c(Cl)c3)cccc2c1=O [Compound 1023]
12 | 0 to 25% | CCOc1ccc(C(=O)Nc2cccc3c(=O)n(Cc4cccnc4)ccc23)c(O)c1 [Compound 1072]
13 | 0 to 25% | COCCn1ccc2c(NC(=O)C3CCC(C)CC3)cccc2c1=O (stereo not drawn) [Compound 1061]
14 | 26 to 50% | O=C(Nc1cccc2c(=O)n(CC3CCOCC3)ccc12)c1ccccc1Cl [Compound 1082]
15 | 0 to 25% | COc1ccc(CC(=O)Nc2cccc3c(=O)n(CCN(C)C)ccc23)cc1OC [Compound 1158]
16 | 0 to 25% | CN(C)CCn1ccc2c(NC(=O)c3cc(Cl)ccc3Cl)cccc2c1=O [Compound 1139]

same assay, conditions: 0.3 μM compound; differentiated THP-1 cells, BzATP 250 uM; symbols + to ++++; read-out: IL-1β % Inhib. @ 0.3 μM

Row | inhibition at 0.3 µM | Structure (SMILES)
17 | 0 to 25% | CC(C)Cc1ccc(C(=O)Nc2cccc3c(=O)n(CC(C)(C)C)ccc23)cc1 [Compound 1288]
18 | 51 to 75% | CN(C)CCn1ccc2c(NC(=O)Cc3ccc(Cl)cc3Cl)cccc2c1=O [Compound 1387]
19 | 26 to 50% | CCOc1ccccc1CC(=O)Nc1cccc2c(=O)n(Cc3cccnc3)ccc12 [Compound 1366]
20 | ≥ 76% | CC(=O)OCCn1ccc2c(NC(=O)Cc3ccc(Cl)cc3Cl)cccc2c1=O [Compound 1381]
21 | 0 to 25% | Cc1cc(C)cc(CC(=O)Nc2cccc3c(=O)n(CC(C)(C)C)ccc23)c1 [Compound 1276]
22 | 0 to 25% | COCCn1ccc2c(NC(=O)CCc3ccc(OC)cc3)cccc2c1=O [Compound 1311]
23 | 26 to 50% | O=C(CCc1cccc(Cl)c1)Nc1cccc2c(=O)n(CCN3CCOCC3)ccc12 [Compound 1242]

same assay, conditions: THP-1; read-out: IL-1β % Inhib.

Row | inhibition | Structure (SMILES)
24 | 0 to 25% | O=C1CCCN1CCCn1ccc2c(NC(=O)[C@@]34C[C@@H]5C[C@@H](C[C@@H]3C5)C4)cccc2c1=O [Compound 1532]
25 | 0 to 25% | Cc1cccc(C(=O)Nc2cccc3c(=O)n(CCCN4CCCC4=O)ccc23)c1 [Compound 1513]
26 | 0 to 25% | Cc1ccc(Cl)c(C(=O)Nc2cccc3c(=O)n(CCCN4CCCC4=O)ccc23)c1 [Compound 1540]
27 | 0 to 25% | Cc1ccc(C)c(C(=O)Nc2cccc3c(=O)n(Cc4ccc(OC(F)(F)F)cc4)ccc23)c1 [Compound 1565]
28 | 0 to 25% | COc1cccc(CCC(=O)Nc2cccc3c(=O)n(Cc4ccc(OC(F)(F)F)cc4)ccc23)c1 [Compound 1552]
29 | 0 to 25% | Cc1ccc(C(=O)Nc2cccc3c(=O)n(CCCN4CCCC4=O)ccc23)c(C)c1 [Compound 1509]
30 | 0 to 25% | O=C(CCCc1ccccc1)Nc1cccc2c(=O)n(Cc3ccc(OC(F)(F)F)cc3)ccc12 [Compound 1586]
31 | 0 to 25% | COc1ccc(C(=O)Nc2cccc3c(=O)n(CCCN4CCCC4=O)ccc23)cc1C [Compound 1545]

same assay, conditions: THP-1 cells, BzATP-stimulated IL-1β release, four parameter logistic fit

Row | IC50 | Structure (SMILES)
32 | 146 nM | CN(C)CCn1ccc2c(NC(=O)Cc3ccc(Cl)cc3Cl)cccc2c1=O [Compound 1387]
33 | 410 nM | CCOc1ccccc1CC(=O)Nc1cccc2c(=O)n(Cc3cccnc3)ccc12 [Compound 1366]
34 | 34.1 nM | CC(=O)OCCn1ccc2c(NC(=O)Cc3ccc(Cl)cc3Cl)cccc2c1=O [Compound 1381]
35 | 53.5 nM | CC(=O)OCCn1ccc2c(NC(=O)Cc3ccc(Cl)c(Cl)c3)cccc2c1=O [Compound 1023]
36 | > 1000 nM | CC(C(=O)Nc1cccc2c(=O)n(CCS(C)(=O)=O)ccc12)c1ccc(Cl)cc1 (stereo not drawn) [Compound 1631]
